Laboratory results: publication PMC10873978, “Novel tetrahydroisoquinolines as DHFR and CDK2 inhibitors: synthesis, characterization, anticancer activity and antioxidant properties” (BMC Chemistry, 2024)
Read-outs that look alike come from different tables or passages of the source.

Legend:
MCF7 cell line = experiment: In vitro cytotoxic activity, MTT method, MCF7; format: cell-based, human
Experimental: (§1) Cell lines: The in vitro human breast cancerous cell line (MCF7), lung cancerous cell lines (A549) and normal cell lines were purchased from Serum and Vaccine formulation in Cairo-Egypt.
(§2) In vitro cytotoxic activity of all synthesized compounds against two human breast cell line (MCF7) and lung cell lines (A549) was evaluated according to the MTT method. Firstly, Growth the cell line medium in 96 well tissue culture plate was injected with 10^5 cells/mL (100 uL/plate well) of the cell line and incubated at 37 °C for 24 h to develop a monolayer sheet then the formed growth medium was poured from 96 well microtiter plates after the confluent sheet of cells. […] Secondly, add 0.1 mL of each concentration tetrahydroisoquinoline sample to each plate. The plates were incubated at 37 °C. Thirdly MTT solution (5 mg/mL in PBS) is prepared. Add 20 µL of MTT solution to each well plates. And shaking in 150 rpm for 5 min, to mix the MTT into the media. Then incubate at (37 °C, 5% CO2) for 1–5 h. Finally read the optical density at 560 nm and subtract background at 620 nm.
(§3) In this work, doxorubicin was used as a positive control drug for comparison with the synthesized compounds under the same experimental conditions.

A549 cell line = experiment: In vitro cytotoxic activity, MTT method, A549
Experimental: as §1, §2, §3

Question: With `CC(=O)C1C(c2ccc(N(C)C)cc2)c2c(C)nc3sc(C(=O)Nc4ccc(C)cc4)c(N)c3c2CC1(C)O` (centres unmarked) [Compound 8b, 7-Acetyl-1-amino-5,8-dimethyl-8-hydroxy-6-(4-N,N-dimethylaminophenyl)-N-(4-tolyl)-6,7,8,9-tetrahydrothieno[2,3-c]isoquinoline-2-carboxamide] as the molecule, how does the IC50 (MCF7 cell line; Homo sapiens, MCF7, MCF7 cell line, MTT) read?
Answer: 3800 ± 8 nM

Question: What about the Toxicity % (MCF7 cell line; MCF7, Conc. 0.0487 µMol) of the same molecule?
Answer: 0.0678%

Question: And the Viability % (MCF7 cell line; MCF7, Conc. 0.0487 µMol)?
Answer: 99.9322%

Question: What about the Toxicity % (MCF7 cell line; MCF7, Conc. 0.0975 µMol) of the same molecule?
Answer: 0.1234%

Question: And the Viability % (MCF7 cell line; MCF7, Conc. 0.0975 µMol)?
Answer: 99.8766%

Question: What about the Toxicity % (MCF7 cell line; MCF7, Conc. 0.195 µMol) of the same molecule?
Answer: 0.2042%

Question: And the Viability % (MCF7 cell line; MCF7, Conc. 0.195 µMol)?
Answer: 99.8%

Question: And the Toxicity % (MCF7 cell line; MCF7, Conc. 0.391 µMol)?
Answer: -0.2042%

Question: What about the Viability % (MCF7 cell line; MCF7, Conc. 0.391 µMol) of the same molecule?
Answer: 100.2%

Question: What about the Toxicity % (MCF7 cell line; MCF7, Conc. 0.781 µMol) of the same molecule?
Answer: 2.124%

Question: What about the Viability % (MCF7 cell line; MCF7, Conc. 0.781 µMol) of the same molecule?
Answer: 97.88%

Question: What about the Toxicity % (MCF7 cell line; MCF7, Conc. 1.562 µMol) of the same molecule?
Answer: 13.36%

Question: And the Viability % (MCF7 cell line; MCF7, Conc. 1.562 µMol)?
Answer: 86.64%

Question: What about the Toxicity % (MCF7 cell line; MCF7, Conc. 3.125 µMol) of the same molecule?
Answer: 24.63%

Question: And the Viability % (MCF7 cell line; MCF7, Conc. 3.125 µMol)?
Answer: 75.37%

Question: What about the Toxicity % (MCF7 cell line; MCF7, Conc. 6.25 µMol) of the same molecule?
Answer: 60.13%

Question: What about the Viability % (MCF7 cell line; MCF7, Conc. 6.25 µMol) of the same molecule?
Answer: 39.87%

Question: And the Toxicity % (MCF7 cell line; MCF7, Conc. 12.5 µMol)?
Answer: 88.07%

Question: And the Viability % (MCF7 cell line; MCF7, Conc. 12.5 µMol)?
Answer: 11.93%

Question: And the Toxicity % (MCF7 cell line; MCF7, Conc. 25 µMol)?
Answer: 96.69%

Question: What about the Viability % (MCF7 cell line; MCF7, Conc. 25 µMol) of the same molecule?
Answer: 3.309%

Question: And the Toxicity % (A549 cell line; A549, Conc. 0.04875 µMol)?
Answer: 8.929%

Question: And the Toxicity % (A549 cell line; A549, Conc. 0.0975 µMol)?
Answer: 10.49%

Question: What about the Toxicity % (A549 cell line; A549, Conc. 0.195 µMol) of the same molecule?
Answer: 12.58%

Question: And the Viability % (A549 cell line; A549, Conc. 0.195 µMol)?
Answer: 87.42%

Question: And the Toxicity % (A549 cell line; A549, Conc. 0.391 µMol)?
Answer: 21.42%

Question: What about the Viability % (A549 cell line; A549, Conc. 0.391 µMol) of the same molecule?
Answer: 78.58%

Question: What about the Toxicity % (A549 cell line; A549, Conc. 0.781 µMol) of the same molecule?
Answer: 51.95%

Question: What about the Viability % (A549 cell line; A549, Conc. 0.781 µMol) of the same molecule?
Answer: 48.05%

Question: What about the Toxicity % (A549 cell line; A549, Conc. 1.562 µMol) of the same molecule?
Answer: 61.42%

Question: What about the Viability % (A549 cell line; A549, Conc. 1.562 µMol) of the same molecule?
Answer: 38.58%

Question: What about the Toxicity % (A549 cell line; A549, Conc. 3.125 µMol) of the same molecule?
Answer: 70.69%

Question: What about the Viability % (A549 cell line; A549, Conc. 3.125 µMol) of the same molecule?
Answer: 29.31%

Question: What about the Toxicity % (A549 cell line; A549, Conc. 6.25 µMol) of the same molecule?
Answer: 84.3%

Question: And the Viability % (A549 cell line; A549, Conc. 6.25 µMol)?
Answer: 15.7%

Question: What about the Toxicity % (A549 cell line; A549, Conc. 12.5 µMol) of the same molecule?
Answer: 93.25%

Question: And the Viability % (A549 cell line; A549, Conc. 12.5 µMol)?
Answer: 6.746%

Question: And the Toxicity % (A549 cell line; A549, Conc. 25 µMol)?
Answer: 96.06%

Question: And the Viability % (A549 cell line; A549, Conc. 25 µMol)?
Answer: 3.945%

Question: And the IC50 (A549 cell line; Homo sapiens, read-out: IC50 ± SD)?
Answer: 527 ± 2 nM

Question: For `COc1cccc2c1C(=O)c1c(O)c3c(c(O)c1C2=O)C[C@@](O)(C(=O)CO)C[C@@H]3O[C@H]1C[C@H](N)[C@H](O)[C@H](C)O1` [Douxrbicin], which IC50 (A549 cell line; A549) is on record?
Answer: 218 nM

Question: And the Toxicity % (A549 cell line; A549, Conc. 0.0487 µMol)?
Answer: 20%

Question: And the Viability % (A549 cell line; A549, Conc. 0.0487 µMol)?
Answer: 80%

Question: What about the Viability % (A549 cell line; A549, Conc. 0.0975 µMol) of the same molecule?
Answer: 73.2%

Question: What about the Toxicity % (A549 cell line; A549, Conc. 0.195 µMol) of the same molecule?
Answer: 36.33%

Question: And the Viability % (A549 cell line; A549, Conc. 0.195 µMol)?
Answer: 63.67%

Question: And the Toxicity % (A549 cell line; A549, Conc. 0.391 µMol)?
Answer: 62.45%

Question: And the Viability % (A549 cell line; A549, Conc. 0.391 µMol)?
Answer: 37.55%

Question: And the Viability % (A549 cell line; A549, Conc. 0.781 µMol)?
Answer: 20.26%

Question: What about the Toxicity % (A549 cell line; A549, Conc. 1.562 µMol) of the same molecule?
Answer: 89.84%

Question: And the Viability % (A549 cell line; A549, Conc. 1.562 µMol)?
Answer: 10.16%

Question: And the Toxicity % (A549 cell line; A549, Conc. 3.125 µMol)?
Answer: 93.56%

Question: And the Viability % (A549 cell line; A549, Conc. 3.125 µMol)?
Answer: 6.44%

Question: What about the Toxicity % (A549 cell line; A549, Conc. 6.25 µMol) of the same molecule?
Answer: 95.35%

Question: And the Viability % (A549 cell line; A549, Conc. 6.25 µMol)?
Answer: 4.651%

Question: What about the Toxicity % (A549 cell line; A549, Conc. 12.5 µMol) of the same molecule?
Answer: 97.9%

Question: And the Viability % (A549 cell line; A549, Conc. 12.5 µMol)?
Answer: 2.1%

Question: And the Toxicity % (A549 cell line; A549, Conc. 25 µMol)?
Answer: 98.9%

Question: And the Viability % (A549 cell line; A549, Conc. 25 µMol)?
Answer: 1.1%
